Legend:
BoNT/A-LC [1] = target: T1, BoNT/A-LC (Clostridium botulinum, UniProt P0DPI0); type: biochemical
BoNT/A-LC [2] = target: T1, BoNT/A-LC; type: biochemical; remark: listed apart in the source
BoNT/A Holotoxin = BoNT/A Holotoxin (Clostridium botulinum, UniProt P0DPI0); type: biochemical
BoNT/A Toxoid = BoNT/A Toxoid (Clostridium botulinum, UniProt P0DPI0)
[3] = target: heat inactivated BoNT/A-LC (Clostridium botulinum, UniProt P0DPI0)
Sequence of heat inactivated BoNT/A-LC (P0DPI0 2-448 limits assumed): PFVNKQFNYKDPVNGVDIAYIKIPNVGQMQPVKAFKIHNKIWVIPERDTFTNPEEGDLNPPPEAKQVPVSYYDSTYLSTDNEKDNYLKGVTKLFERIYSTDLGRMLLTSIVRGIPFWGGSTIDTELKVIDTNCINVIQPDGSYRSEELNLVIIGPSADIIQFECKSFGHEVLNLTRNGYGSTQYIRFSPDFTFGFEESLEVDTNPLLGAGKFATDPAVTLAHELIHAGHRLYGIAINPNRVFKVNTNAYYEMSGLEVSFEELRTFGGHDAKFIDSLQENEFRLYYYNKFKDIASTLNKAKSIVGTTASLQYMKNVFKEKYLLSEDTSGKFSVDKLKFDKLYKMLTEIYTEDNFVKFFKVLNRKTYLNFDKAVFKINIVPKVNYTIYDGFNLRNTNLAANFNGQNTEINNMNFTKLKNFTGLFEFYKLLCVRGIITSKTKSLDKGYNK

T1 sequence (P0DPI0 2-448 limits assumed): as above
Sequence of BoNT/A Holotoxin (P0DPI0 2-448 limits assumed): as above
Sequence of BoNT/A Toxoid (P0DPI0 2-448 limits assumed): as above

Which “effect on BoNT/A-LC activity” value (BoNT/A-LC [1]) does the source give for `O[C@H](CS)[C@H](O)CS` (racemic) [DTT, Dithiothreitol] here?
Its value is “reduced BoNT/A-LC activity”.

What does the source list for `O=C(O)CCP(CCC(=O)O)CCC(=O)O` [TCEP, tris(2-carboxyethyl)phosphine, reference compound]?
performance of reducing agent in BoNT/A-LC assay (BoNT/A-LC [2]): performed better than samples with DTT (and zinc), and even better than samples containing no reducing agent; performance of TCEP concentration in BoNT/A Holotoxin assay (BoNT/A Holotoxin): samples with 1.0 mM TCEP performed better than samples with 2.0 mM TCEP

“(KDabcyl)TRIDEANQRATKML(K5Fam) [SEQ. ID NO. 6]” was tested. Which “detection of BoNT/A-LC activity” value (BoNT/A-LC [2]) did it give?
The value was “incapable of detecting BoNT/A-LC activity”.

Which results are given for “MDENLEQVSGIIGNLRHMALDMGNEIDTQNRQIDRIMEKADSN(KDabcyl)TRIDEANQRATKML(K5Fam) [SEQ. ID NO. 1]”?
detection of BoNT/A Toxoid (BoNT/A Toxoid): not BoNT/A Toxoid, even when present at high concentrations; detection of BoNT/A-LC activity (BoNT/A-LC [2]): able to detect BoNT/A-LC; detection of BoNT/A-LC activity in the presence of common PCR inhibitors (BoNT/A-LC [2]): can detect BoNT/A-LC activity in the presence of common PCR inhibitors; detection of biologically active BoNT/A-LC (BoNT/A-LC [2]): able to detect biologically active BoNT/A-LC; fluorescence response to BoNT/A-LC (BoNT/A-LC [2]): able to detect biologically active BoNT/A-LC; increase in fluorescence overtime compared to SNAPtide (BoNT/A-LC [2]): greater increase in fluorescence overtime; limit of detection of BoNT/A-LC (BoNT/A-LC [2]): at least 0.04 ng; detection of heat inactivated BoNT/A-LC [3]: not heat inactivated BoNT/A-LC, even when present at high concentrations

Source: US9284595B2 (priority 2012, dated 2016)
